Entries after “also recorded” stand apart in the source; their conditions may differ. Non-standard residues stand in square brackets, D forms with d. Residues, ends and D or L forms follow the SMILES beside them. *: point of attachment. X1 = O=C(CCCC[C@@H]1SC[C@@H]2NC(=O)N[C@@H]21)NCCCOCCOCCOCCCN*; PEG12 = NCCOCCOCCOCCOCCOCCOCCOCCOCCOCCOCCOCCOCCC(=O)O
System: subcutaneous H2009 tumors
Assay: Tumor homing by near infrared imaging
Type: in vivo, mouse
Settings: for Total Radiant Efficiency: Mean
Procedure: Use of MGS4 as a delivery agent relies on its ability to target a tumor in an animal. MGS4_V8 and MGS4_V6 (control) were conjugated directly to Alexa Fluor 750. Each conjugate was injected intravenously into immunocompromised mice bearing subcutaneous H2009 tumors, and accumulation of the peptide was measured by near infrared imaging (Fig. 5a). MGS4_V8 tumor homing is observed at 12 h and 85% of that signal is maintained at 24 h. MGS4_V8 signal remains at 48 and 72 h, indicating persistent retention of the dye in the tumor. At all times, MGS4_V8 has 25-40-fold increased signal compared to the control peptide. […] Tumors were fixed in paraformaldehyde followed by whole tumor imaging on a LI-COR® Odyssey (Fig. 5b). A clear visual difference exists between tumors isolated from mice treated with MGS4_V8 compared to those treated with MGS4_V6 control or untreated. Quantification of fluorescence results in a 240-fold higher signal in the MGS4_V8 treated tumors compared to the MGS4_V6 group. Similar results were obtained when subcutaneous H1299 tumors were established in mice (Supplemental Fig. 5).
Fig. 5 MGS4_V8 homes to xenograft tumor after systemic delivery and can deliver saporin resulting in reduced tumor growth. a H2009 tumor bearing nude mice (N = 4) were injected I.V. with MGS4_V8 or MGS4_V6 conjugated to NIR dye Alexa Fluor 750. At 12, 24, 48, and 72 h postinjection, mice were anesthetized and imaged on an IVIS® (Perkin Elmer) to measure total radiant efficiency in each tumor. MGS4_V8 accumulates in tumor 25–39 fold better than control peptide, MGS4_V6. […] Ex vivo NIR imaging of the tumors at the end of the experiment mirrors the data observed in the living animals. […] Data for individual animals is included in Supplementary Table 8. b Excised tumors from the previous experiment were fixed in PBS + 4% formaldehyde and then imaged again together on a LI-COR® Odyssey. Arbitrary fluorescence units (AFU) were determined for each tumor and the average and SEM are shown below the image. The mean fluorescent intensity is 240-fold greater for MGS4_V8-Alexa Fluor 750 conjugate than the MGS4_V6 control conjugate. c Saporin was conjugated to either targeting MGS4_V8 or nontargeting MGS4_V6 and 7.5 µg of the conjugate was injected I.V. into mice bearing subcutaneous tumors. Animals were dosed 2 times per week for 2.5 weeks (indicated by arrows). Tumors were measured every other day. MGS4_V8-saporin clearly slows tumor growth, while nontargeted saporin has no effect compared to untreated animals. Error bars represent SEM, *p-value < 0.05, **p-value < 0.01, ***p-value < 0.001, ****p-value < 0.0001 (two-way ANOVA). d Tumor size (mm3) are shown for individual animals at days 0, 6, 12, and 18. Mean value is represented by the horizontal line and the error bars represent standard error. There is no statistical difference between MGS4_V6-Saporin and untreated at any day. At days 12 and 18 MGS4_V8-Saporin is statistically different than untreated (p-values 0.0099 and 0.0029, respectively) and MGS4_V6-Saporin (p-values 0.0069 and 0.0009, respectively). TEXT PRINTED IN THE PICTURE: (b) MGS4_V8: AFU: 3.3e6 ± 1.1e5; 240-fold | (b) MGS4_V6: AFU: 1.2e4 ± 2.7e3 DOUBTS OF THE COPYIST ABOUT THIS PICTURE: Panel b, 240-fold: printed under a line spanning MGS4_V8 and MGS4_V6; assigned to MGS4_V8 / Panel b, Untreated column (AFU: 1.6e3 ± 4.3e2) left out because it is a control without a substance
Animal experiments were approved by SRI International’s Institutional Animal Care and Use committee (Animal Welfare Assurance Number A3025-01, protocol 14008). H2009 cells (10^6) or H1299 cells (10^6) were implanted subcutaneously on the flank of female Nu/Nu mice (Jackson Laboratory, Bar Harbor, ME). When tumors reached 100 mm^3, in vivo experiments were initiated. For imaging, the indicated peptides were conjugated directly to Alexa Fluor 750 near-infrared dye (Supplemental Fig. 1). Four animals per group were used. […]

Compound | Total Radiant Efficiency (12 h) | tumor signal maintained relative to 12 h (24 h, Alexa Fluor 750 conjugate i.v.) | Total Radiant Efficiency (24 h) | Total Radiant Efficiency (48 h) | Total Radiant Efficiency (72 h (first line)) | Total Radiant Efficiency (72 h (second line)) | fold fluorescence versus MGS4_V6 group (excised fixed tumors, 72 h, LI-COR Odyssey) | tumor signal versus untreated tumors (Alexa Fluor 750 conjugate)
CC(=O)N[C@@H](Cc1ccccc1)C(=O)N[C@@H](Cc1c[nH]cn1)C(=O)N[C@@H](C)C(=O)N[C@H](C(=O)N1CCC[C@H]1C(=O)N[C@@H](CCC(N)=O)C(=O)N[C@@H](CO)C(=O)N[C@@H](Cc1ccccc1)C(=O)N[C@@H](Cc1ccc(O)cc1)C(=O)N[C@H](C(=O)NCCOCCOCCOCCOCCOCCOCCOCCOCCOCCOCCOCCOCCC(=O)N[C@@H](CCC(=O)NCCCOCCOCCOCCCNC(=O)CCCC[C@@H]1SC[C@@H]2NC(=O)N[C@@H]21)C(N)=O)[C@@H](C)O)C(C)C [MGS4_V8] (Ac-FHAVPQSFYT[PEG12]E(X1)-NH2) | 1.58e+010 | 85% | 1.33e+010 | 7.91e+009 | 7.00e+009 | 2.02e+010 | 240 fold | 
*HAVPQSFYT** [MGS4_V6] | 3.94e+008 |  | 3.44e+008 | 2.64e+008 | 2.80e+008 | 2.00e+009 |  | no statistically significant difference; also recorded: statistically no different than untreated tumors

Source: publication PMC9845330 (Communications Biology, 2023)
